How the values were obtained:
[1] = tested on: P.A.F.-induced aggregation of blood platelets; assay: anti-P.A.F. action in vitro (P.A.F.-induced platelet aggregation); type: cell-based; details: Oryctolagus cuniculus, 10^-5 mole/liter, read-out: Anti-P.A.F. activity in vitro, % inhibition of the P.A.F.-induced aggregation of blood platelets from rabbit blood
Excerpt: 3. Determination of the anti-P.A.F. action in vitro.
P.A.F. (=Platelet Activating Factor=Platelet Aggregation Factor) is a phospholipid mediator which has a multiplicity of actions. The activation of blood platelet aggregation results in the induction of long-lasting bronchoconstrictions and hyperreactivity of the respiratory passages.
In this test, the effect of the test substances on platelet aggregation induced by addition of P.A.F. in a platelet suspension obtained from rabbit blood was investigated according to the method described by Mikashima et al. (Jap. J. Pharmacol. 44 (1987) 387-391).
A suspension of platelets obtained from rabbit blood was used which contains 4×10^9 platelets/ml in a modified Tyrode buffer solution (=Tyrode solution with the addition of 1.3 mM/l of CaCl2 and 2.5 g/l of gelatine) adjusted to pH 7.4. Tyrode solution is an aqueous solution containing, per liter, 136.9 mmole of NaCl, 2.68 mmole of KCl, 2.31 mmole of CaCl2, 1.0 mmole of MgCl2, 11.9 mmole of NaHCO3, 1.45 mmole of NaH2 PO4 and 5.55 mmole of glucose. The platelets were concentrated from 10 ml blood samples of three rabbits (New Zealand hybrids, body weight 3-4 kg) in each case. To accomplish this, the blood samples were treated with ethylenediaminetetraacetic acid and washed according to the method of Artley et al. (Brit. J. Haematol. 19 (1970), 7-17). A platelet-rich plasma was first separated by centrifugation (20 minutes at 400×g). The platelets were separated from the plasma by repeated centrifugation for 15 minutes at 1400×g.After the centrifugation, the blood platelets remaining in the sediment were resuspended in a Tyrode buffer solution (but without calcium). 0.4 mmole of lysine acetylsalicylate was then added, and the blood platelets were sedimented again after 15 minutes. The sediment was resuspended in the aforementioned modified Tyrode buffer solution, and the number of platelets in the suspension obtained was adjusted to the desired content.
A 40×10^-9 molar P.A.F. solution was employed as a reagent. This solution was prepared from a 1.8×10^-3 molar stock solution in chloroform. To do this, a 10 μl sample of the stock solution was evaporated to dryness and dissolved again in 180 μl of the modified Tyrode buffer solution, to which 0.25% of lipid-free bovine serum albumin had been added. 10^-5 molar working solutions were then prepared from this and stored frozen. Samples of these solutions were appropriately diluted for tests.
In order to carry out the test, 50 μl of the blood platelet suspension and 10 μl of a 40×10^-5 molar solution of the compound to be investigated were added to […] of the modified Tyrode buffer solution with stirring (1000 rpm) in an aggregation tube provided with a small magnetic stirrer. This corresponded to a final test substance concentration of 10^-5 mole/l. After a preincubation time of 90 seconds, 10 μl of the P.A.F. preparation were added. For 4-5 minutes, the aggregation occurring in the aggregation tube was measured by means of a computerized aggregometer.
The aggregation occurring in the test tubes containing only the platelet suspension is rated as 0%. The aggregation occurring in the test tubes containing platelet suspension and P.A.F. preparation, in which a P.A.F.-induced increase in platelet aggregation takes place, is rated as 100%. The aggregation still occurring after addition of the test substances is measured, and from this the inhibition of the P.A.F.-inducedincrease in aggregation which takes place is calculated in %.

male mice = details: mouse, in vivo, po, 1440 min
Description: 2. Determination of the minimum toxic dose.
Maximum doses of 300 mg/kg of the test substance were administered orally to male mice each weighing 20-25 g. The animals were carefully observed for symptoms of toxicity for 3 hours. All symptoms and deaths were additionally recorded over a period of 24 hours after administration. Associated symptoms were likewise observed and recorded. If death or severely toxic symptoms were observed, increasingly lower doses were administered to further mice. The lowest dose which caused death or severely toxic symptoms is indicated as the minimum toxic dose in the following Table B: […]

5-lipoxygenase [2] = assay: inhibition of 5-lipoxygenase activity in polymorphonuclear rat leucocytes (LTB4 formation); type: cell-based; details: 10^-5 mol/l; 22° C.
Excerpt: 4. In vitro determination of 5-lipoxygenase inhibition. 4a. In vitro determination of inhibition of 5-lipoxygenase activity in polymorphonuclear rat leucocytes. Arachidonic acid contained in cell membranes is released after activiation of the polymorphonuclear leucocytes (=PMN). During the course of this, under the action of the enzyme 5-lipoxygenase (=5-LO) arachidonic acid metabolites are synthesized which can be converted to leucotriene B4 (=LTB4) by LTA4 hydrolase. LTB4 is a principal metabolite of the arachidonic acid metabolism taking place on activation of the enzyme 5-LO by the inflammatory stimulus in the cell membrane. In in vitro systems, this metabolite is secreted from PMNs. […] To accomplish this, the content of LTB4 in a culture medium of rat peritoneal PMNs was determined after stimulation by calcimycin (=calcium-ionophore A23187) such as described by […] et al., Can. J. Physiol. Pharmacol. 67 (1989), 17. A cell suspension containing peritoneal PMNs of male Sprague-Dawley rats (body weight 200 to 250 g) was obtained in a known manner as follows: 6 ml of a solution containing 27.9 g/l of sodium thioglycolate were injected i.p. into the animals in order to induce the PMN invasion due to this inflammatory stimulus. After 22 hours, the animals were sacrificed by means of lethal ether anaesthesia. 20 ml of a Hank's salt solution (=Hank's Balanced Salt Solution=HBSS), but without Ca^++ and Mg^++ ions and with 0.2% by weight of sodium citrate, were then injected into the abdominal cavity. The suspension of accumulated cells was removed from the abdominal cavity and the cells were separated by centrifugation (10 minutes at 400×g). The cells were purified by repeated centrifugation in the presence of Ficoll-Paque®, (=metrizoic acid preparation, […], manufacturer Pharmacia), then washed twice with HBSS containing Ca^++ and Mg^++ ions and resuspended in HBSS containing Ca^ ++ and Mg^++ ions and buffered with 10 mM HEPES (=hydroxyethylpiperazinoethanesulfonic acid). In order to carry out the tests, samples of 0.7 ml of the PMN suspension (=0.5×10^6 cells) in each case were incubated for 15 minutes at 22° C. in plastic tubes containing 10 μM of the test substance in dimethylformamide or, as a control experiment, only containing dimethylformamide. The LTB4 synthesis was initiated in the samples by addition of calcimycin (final concentration 5 μm), and the samples were incubated for 10 minutes at 22° C. Only solvent was added to blank control samples. After 10 minutes, the reaction was terminated by addition of 0.3 ml of cold methanol. The samples were kept for 1 hour at 4° C. and then centrifuged (5 minutes at 10,000×g). The supernatant liquid was investigated to determine its LTB4 content by means of reverse phase high-pressure liquid chromatography (=reverse phase HPLC). […] The LTB4 was identified by comparison with authentic standard solutions eluting at the same time and determined at a wavelength of 270 nm. The LTB4 contents are determined from comparison with calibrated standard solutions, and from this the inhibitory activity of the test substances was calculated in % inhibition of the LTB4 synthesis in comparison with the control samples containing no test substance.

[3] = tested on: cutaneous histamine induced anaphylactoid reactions; assay: inhibition of the anaphylactoid cutaneous reaction induced by histamine; type: in vivo, Sprague-Dawley rats; details: Rattus norvegicus, po, 0.5 h; 2 × 10^-5 mole/kg p.o., one hour before histamine; assessed 30 minutes after provocation; read-out: Inhibitory action against cutaneous histamine induced anaphylactoid reactions in rats, % inhibition
Description: 1. Determination of the inhibition of the anaphylactoid cutaneous reaction induced by histamine.
The inhibition of the anaphylactoid cutaneous reaction induced by histamine was determined in Sprague-Dawley rats having body weights of 150-180 g.
In order to determine the histamine-induced anaphylactoid skin reaction, 50 μl of a physiological saline solution containing 0.8 mg/ml of histamine were injected into the animals intradermally on one flank. Immediately afterward, a solution of 26.4 mg/kg of a blue dye (Evan's Blue) was administered i.v. to the animals.
The test substances were dissolved in distilled water which contains 1% by volume of dimethylformamide and 1% by volume of Tween®20 (=polyoxyethylene(20) sorbitan monolaurate). One hour before the histamine injection, each animal received 2×10^-5 mol/kg of test substance, in each case administered orally in 0.5 ml of solution. A control group received only the solvent for comparison.
The histamine-induced anaphylactoid reactions which manifested themselves by edema formation, swelling and exudation of blue dye are assessed 30 minutes after provocation by the histamine injection. This is carried out by visual determination of the extent of the exudation of blue dye at the sites of edema formation. With the aid of comparison scales, the percentage inhibition of the anaphylactoid reactions produced by the test substances is determined in comparison with the reactions of the control animals not treated with test substance.
The results obtained with compounds of the formula I by the above test method are reproduced in the following table A. The example numbers given as identifiers for the compounds of formula I refer to the subsequent preparative examples.

5-lipoxygenase [4] = target: T1, 5-lipoxygenase (Homo sapiens, UniProt P09917); assay: 5-lipoxygenase inhibition in human blood (LTB4 formation); type: cell-based; details: 0.5 h; 10^-5 mole/liter; human whole blood, 37° C.; read-out: In vitro % inhibitory activity on LTB4 formation in human blood stimulated by calcimycin
T1 construct: the 5-LO activity in human whole blood; from tissue; host or cells: heparinized human whole blood
T1 sequence (P09917 1-674): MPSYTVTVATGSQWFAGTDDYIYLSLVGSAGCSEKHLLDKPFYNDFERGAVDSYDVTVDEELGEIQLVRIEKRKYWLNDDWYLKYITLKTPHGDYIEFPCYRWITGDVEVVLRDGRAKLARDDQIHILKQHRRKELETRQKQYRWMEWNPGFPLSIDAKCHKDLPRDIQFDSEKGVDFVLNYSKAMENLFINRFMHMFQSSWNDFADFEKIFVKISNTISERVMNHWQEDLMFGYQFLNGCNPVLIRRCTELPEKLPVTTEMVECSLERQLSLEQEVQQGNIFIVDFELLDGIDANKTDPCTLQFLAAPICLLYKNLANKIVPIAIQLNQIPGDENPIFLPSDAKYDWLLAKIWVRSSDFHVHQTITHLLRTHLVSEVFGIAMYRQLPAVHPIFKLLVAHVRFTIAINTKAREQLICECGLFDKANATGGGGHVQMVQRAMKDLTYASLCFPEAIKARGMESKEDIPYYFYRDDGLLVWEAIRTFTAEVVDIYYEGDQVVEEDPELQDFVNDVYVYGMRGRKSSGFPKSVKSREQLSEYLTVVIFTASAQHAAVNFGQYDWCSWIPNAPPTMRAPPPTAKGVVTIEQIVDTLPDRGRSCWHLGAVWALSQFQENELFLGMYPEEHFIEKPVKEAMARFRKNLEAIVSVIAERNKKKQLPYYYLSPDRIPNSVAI
Description: 4c. In vitro determination of 5-lipoxygenase inhibition in human blood.
The inhibitory activity of the test substances on the 5-LO activity in human whole blood taking place after stimulation by calcimycin is investigated according to the method described by P. Gresele et al. (Biochem. Biophys. Commun. 137 (1986), 334).
For carrying out the test, human blood is collected in sterile 50 ml test tubes which contain 10 units of heparin/ml of blood and incubated for 5-10 minutes at 37° C. Amounts of test substance, dissolved in 10 μl of dimethylformamide, are added to 2 ml samples of this blood such that a final concentration of test substance of 10 μmol/l is achieved in the samples. Only 10 μl of the solvent were added to control samples. The samples were then incubated for 10 minutes at 37° C. In order to stimulate LTB4 synthesis, an amount of calcimycin, dissolved in 200 μl of plasma, was added to the samples such that a calcimycin concentration of 60 μmol/l was achieved, and the samples were incubated for a further 30 minutes at 37° C. The reaction was then terminated by addition of 200 μl of an ethylene glycol tetraacetate solution (corresponding to an ethylene glycol acetate concentration in the sample of 100 mmol/l). The samples are kept in an ice-bath for 10 minutes and then centrifuged (5 minutes at 1000×g). The supernantant liquids, which contain the LTB4 formed during the reaction time, are each separated and, for precipitation of the proteins contained therein, mixed with 3 ml of acetone and kept for 45 minutes at 4° C. Then the samples are centrifuged again (5 minutes at 1500×g), the supernatant liquids are separated, and the content of LTB4 therein is determined in a known manner by means of an enzyme immunoassay (=EIA). From the measured LTB4 values, the inhibitory activity of the test substances in human whole blood was calculated in % inhibition of LTB4 synthesis in comparison to the control samples containing no test substance.

How did the inhibition at 10 µM [1] turn out when `COc1ccc(-c2c(C)c3cccc4c3n2CC(CN2CCN(c3cc(C)ccn3)CC2)O4)cc1` (centres unmarked) [Example 5, 2,3-Dihydro-5-(4-methoxyphenyl)-6-methyl-2-[4-(4-methylpyridin-2-yl)piperazin-1-ylmethyl]pyrrolo[1,2,3-de]-1,4-benzoxazine] was run?
The inhibition at 10 µM was 100%.

And the Minimum toxic dose (male mice)?
Its Minimum toxic dose is over 300 mg/kg.

`Cc1c(-c2ccc(O)cc2)n2c3c(cccc13)OC(CCN1CCN(c3ccccn3)CC1)C2` (centres unmarked) [Example 30] was tested. Which “In vitro inhibitory activity on LTB4 formation in rat PMNs stimulated by calcium ionophore A23187” value (5-lipoxygenase [2]) did it give?
Its value is 100%.

What about the inhibition in vivo at 20 µmol/kg [3] of the same compound?
Its inhibition in vivo at 20 µmol/kg is 47%.

And the inhibition at 10 µM [1]?
Its inhibition at 10 µM is 69%.

With `Cc1ccc(N2CCN(CCC3Cn4c(-c5ccc(O)cc5)c(C)c5cccc(c54)O3)CC2)nc1` (centres unmarked) [Example 31] as the compound, how does the “In vitro inhibitory activity on LTB4 formation in rat PMNs stimulated by calcium ionophore A23187” value (5-lipoxygenase [2]) read?
Its value is 81%.

And the inhibition in vivo at 20 µmol/kg [3]?
The inhibition in vivo at 20 µmol/kg was 58%.

What about the inhibition at 10 µM [1] of the same compound?
Its inhibition at 10 µM is 52%.

How did the “In vitro inhibitory activity on LTB4 formation in rat PMNs stimulated by calcium ionophore A23187” value (5-lipoxygenase [2]) turn out when `Cc1cccnc1N1CCN(CCC2Cn3c(-c4ccc(O)cc4)c(C)c4cccc(c43)O2)CC1` (centres unmarked) [Example 32] was run?
The value was 98%.

And the inhibition in vivo at 20 µmol/kg [3]?
Its inhibition in vivo at 20 µmol/kg is 57%.

What about the inhibition at 10 µM [1] of the same compound?
Its inhibition at 10 µM is 79%.

Which results are given for `Cc1cccc(N2CCN(CCC3Cn4c(-c5ccc(O)cc5)c(C)c5cccc(c54)O3)CC2)n1` (centres unmarked) [Example 33]?
In vitro inhibitory activity on LTB4 formation in rat PMNs stimulated by calcium ionophore A23187 (5-lipoxygenase [2]): 90%; inhibition in vivo at 20 µmol/kg [3]: 39%; inhibition at 10 µM [1]: 43%

`Cc1cccnc1N1CCN(CCCC2Cn3c(-c4ccc(O)cc4)c(C)c4cccc(c43)O2)CC1` (centres unmarked) [Example 41] was tested. Which “In vitro inhibitory activity on LTB4 formation in rat PMNs stimulated by calcium ionophore A23187” value (5-lipoxygenase [2]) did it give?
Its value is 84%.

What about the inhibition in vivo at 20 µmol/kg [3] of the same compound?
The inhibition in vivo at 20 µmol/kg was 60%.

What about the inhibition at 10 µM (5-lipoxygenase [4]) of the same compound?
The inhibition at 10 µM was 100%.
